Results on two compounds are retold here after patent publication US20130065910A1, “ORAL MECLIZINE AQUEOUS FORMULATIONS WITH TASTE FLAVORING AGENT” (COMPREHENSIVE DRUG ENTERPRISES LTD., priority 2010, published 2013).

Where a name gives a salt, the structure may show the parent alone.

For data set [1], the system named is histamine. The following applies: guinea pigs; cited from earlier work.
Data set [2] deals with histamine. The following applies: in vivo; cited from earlier work.
For another data set, the system named is acetylcholine. Conditions: in vivo; cited from earlier work.
For data set [3], the system named is isolated guinea pig ileum. Conditions: cited from earlier work.
For data set [4] the following is noted: up to 225 mg/day for 9.5 years; cited from earlier work.
A short description of data set [5]: Solubility of meclizine hydrochloride in Solutol HS15 and HP-β-CD solutions. It is filed as physicochemical. The following applies: aqueous with cosolvent or surfactant or cyclodextrin, thermodynamic from solid, room temperature (22° C.). The method, then:
The ability of Solutol® HS15 and HP-β-CD to enhance the aqueous solubility of meclizine hydrochloride is determined in this example.
Aqueous solutions containing 0.1, 0.5, 1, 2.5, 5, 10, 15, 20, and 25% (w/v) (w/v) of Solutol® HS15 or HP-β-CD solubilizers were prepared. 10 mg samples of meclizine hydrochloride were added to a 4 ml portion of each of the above solutions. The samples were left to be stirred overnight at room temperature (22° C.). If during this time all drug dissolved, additional meclizine was added until a suspension was formed (i.e. saturated drug solution formed). After further stirring for up to 24 hours, suspensions were centrifuged at 14000 rpm for 10 minutes, and then the supernatants were filtered (0.45 μm filter, Sartorius, Germany) to obtain saturated meclizine hydrochloride solutions. The filtrate samples were diluted and detected by HPLC and the concentration of meclizine hydrochloride in the samples was calculated with the calibration curve made from standard solutions of meclizine hydrochloride.

The conditions of data set [6]: cited from earlier work.

`Cc1cccc(CN2CCN(C(c3ccccc3)c3ccc(Cl)cc3)CC2)c1` (stereo not shown) [meclizine, 1-[(4-chlorophenyl)-phenyl-methyl]-4-[(3-methylphenyl)methyl]piperazine]: the “protective activity against nebulized histamine and lethal doses of intravenously injected histamine” value in the data set on histamine [1] was “marked protective activity”. Moreover, the “blocking the vasodepressor response to histamine” value with histamine [2] was “marked effect”. In addition, the “blocking action against acetylcholine” value in the data set on acetylcholine is “slight blocking action”. For the same compound, the “inhibiting the spasmogenic action of histamine” value in data set [3] is listed as “relatively weak”. Also, the “tolerability (adverse effects)” value in data set [4] was “no adverse effect reported”.

On to `Cc1cccc(CN2CCN(C(c3ccccc3)c3ccc(Cl)cc3)CC2)c1` (stereo not shown) [meclizine hydrochloride], for which the solubility in data set [5] (0.1% (w/v) HP-β-CD aqueous solution) was 3.4 mg/mL; in data set [5] (0.1% (w/v) Solutol HS15 aqueous solution), 2.6 mg/mL; in data set [5] (0.5% (w/v) HP-β-CD aqueous solution) it was 6.1 mg/mL; in data set [5] (0.5% (w/v) Solutol HS15 aqueous solution) it was 3.2 mg/mL; in data set [5] (1% (w/v) HP-β-CD aqueous solution) it was 7.1 mg/mL; in data set [5] (1% (w/v) Solutol HS15 aqueous solution) it was 4.3 mg/mL. For the same compound, the solubility in data set [5] (2.5% (w/v) HP-β-CD aqueous solution) came out at 9.9 mg/mL; in data set [5] (2.5% (w/v) Solutol HS15 aqueous solution), 5.2 mg/mL; in data set [5] (5% (w/v) HP-β-CD aqueous solution), 14.3 mg/mL; in data set [5] (5% (w/v) Solutol HS15 aqueous solution), 9.2 mg/mL; in data set [5] (10% (w/v) HP-β-CD aqueous solution) it was 24.6 mg/mL; in data set [5] (10% (w/v) Solutol HS15 aqueous solution) it was 15.4 mg/mL. The solubility was found to be 30.5 mg/mL in data set [5] (15% (w/v) HP-β-CD aqueous solution); 22.8 mg/mL in data set [5] (15% (w/v) Solutol HS15 aqueous solution); 34.3 mg/mL in data set [5] (20% (w/v) HP-β-CD aqueous solution); 36.8 mg/mL in data set [5] (20% (w/v) Solutol HS15 aqueous solution); 37.9 mg/mL in data set [5] (25% (w/v) HP-β-CD aqueous solution); 40.1 mg/mL in data set [5] (25% (w/v) Solutol HS15 aqueous solution). The solubility in alcohol entry in data set [6] (alcohol) is “slightly soluble”. The solubility in water entry in data set [6] (water) was “practically insoluble”.
